Measured values: patent US20260297571A1, “METHODS FOR DECREASING NEURONAL DEATH, INFLAMMATION, AND DEGENERATION” (The Johns Hopkins University, priority 2023, published 2026)

Assays:
[1] = tested on: poly-PR expressing neurons; experiment: Cell survival assay, PR50 expressing i^3Neurons; assay type: cell-based, human
Procedure: (§1) Cell survival assay. I'Neurons were infected with lentivirus to transduce GR50, PR50, BFP or GFP expression in the cells on day 5, day 7, day 9 or day 11 depending on the experimental timeline. For inducible DPRs, the virus was added to neurons on differentiation day 6. The expression was initiated by adding Dox to the differentiation medium (induction day 1). To validate the effect of the drugs on neuron survival, DPR was transduced for 7 days. i^3Neurons were treated with 5 μM ASOs for 7 days or 2.5 μM ISP (Sigma, Cat. No. 5343390001) or 3.7 μM DJ001 (Sigma, Cat. No. SML2787) for 3 days before harvesting. To examine the effect of the drugs on other cellular phenotypes, DPR was transduced for 3 days. 2.5 μM ISP or 3.7 μM DJ001 was added to the culture medium on the same day, followed by FYVE reporter transduction 1 day later.
(§2) To measure cell survival, bright-field images were captured on day 14 using a Nikon TS-2 microscope. At least 4 images were taken at 10× object for each replica. At least 2 replicas were included for each batch. All experiments were performed at least twice. To examine dead neurons, PI (Thermo Fisher, Cat. No. P1304MP) dye was added to the culture medium 30 min before harvesting. Images of bright field and Cy3 channel were acquired, followed by quantifying the surviving neurons and PI^+ signals blindly.

hematopoietic stem cell = conditions: in vitro and in the mouse model; cited from earlier work
[2] = tested on: poly-GR expressing neurons; experiment: Cell survival assay, GR50 expressing i^3Neurons; assay type: cell-based, human
Procedure: as §1, §2

[3] = tested on: poly-GR expressing neurons (EEA1^+ early endosome); experiment: EEA1 immunofluorescence staining in i^3Neurons; assay type: cell-based, human; conditions: DJ001 3.7 μM; 3-days GR50 i^3Neurons
Text: During early endosome formation, Rab5 recruits EEA1 to the early endosomal membrane via local PI3P, thus EEA1 expression is considered a secondary indicator of PI3P level. […] EEA1^+ endosome formation was increased upon knocking down PTPσ in poly-GR expressing neurons (FIGS. 2C-2D).
Cell survival assay. I'Neurons were infected with lentivirus to transduce GR50, PR50, BFP or GFP expression in the cells on day 5, day 7, day 9 or day 11 depending on the experimental timeline. For inducible DPRs, the virus was added to neurons on differentiation day 6. The expression was initiated by adding Dox to the differentiation medium (induction day 1). […]
Confocal microscopy and image quantification. […] For GFP-2×FYVE florescence intensity quantification, at least 6 images were taken for each replica with more than 30 neurons. […] The fluorescence intensity of the region of interest was measured and then minus the background intensity. For the quantification of EEA1^+ and LAMP1^+ puncta, EEA1 or LAMP1 channel was merged with MAP2. The puncta within MAP2 region were counted and compared among groups. For the quantification in mouse brains, at least 6 serial sections were imaged to quantify the number of neurons, astrocyte, and microglia in mouse brains. For glutamate-induced neurotoxicity assays, 5 images of PI staining will be taken at 20× for each well to quantify dead neurons. […]

PTPσ = conditions: DJ001; cited from earlier work
PIKFYVE = conditions: YM-201636; cited from earlier work
C9-iPSNs = experiment: Glutamate-induced excitotoxicity assay in C9 iPSNs/iMNs; assay type: cell-based, human; conditions: 10 μM glutamate
Procedure: Glutamate toxicity contributes to the disease onset/progression in ALS due to the loss of glutamate transporter 1 (EAAT2). […] To evaluate the effect of PTPσ knockdown to the physiology of C9-iPSNs, glutamate-induced excitotoxicity assays were performed and the percentage of cell death (PI^+) was quantified after the treatment with or without PTPσ knockdown. […] Taken together, the evidence supports PTPσ knockdown as beneficial for homeostasis of endo-lysosomal system, neuronal function, and survival in the C9-iPSNs.
C9 patient iPSNs differentiation (iMNs differentiation). […]
Glutamate-induced excitotoxicity assay. […] Five pairs of age and gender-matched control and C9ORF72-ALS iPSNs were analyzed.
Confocal microscopy and image quantification. […] For GFP-2×FYVE florescence intensity quantification, at least 6 images were taken for each replica with more than 30 neurons. […] The fluorescence intensity of the region of interest was measured and then minus the background intensity. For the quantification of EEA1^+ and LAMP1^+ puncta, EEA1 or LAMP1 channel was merged with MAP2. The puncta within MAP2 region were counted and compared among groups. For the quantification in mouse brains, at least 6 serial sections were imaged to quantify the number of neurons, astrocyte, and microglia in mouse brains. […] At least 500 cells from each biological replicate will be counted for statistical comparison.

In the case of `O=C(/C=C\Nc1cccc([N+](=O)[O-])c1)c1ccccc1` [DJ001, (Z)-3-((3-nitrophenyl)amino)-1-phenylprop-2-en-1-one], the “poly-PR expressing neuron survival” value ([1]; DJ001, PR50 i^3Neurons) is listed as “improves”, the “hematopoietic stem cell regeneration” value (hematopoietic stem cell) is listed as “can promote hematopoietic stem cell regeneration” and the “poly-GR expressing neuron survival” value ([2]; DJ001 3.7 μM, GR50 i^3Neurons) is listed as “improves”. The “formation of EEA1^+ early endosome” value [3] was “significantly increased” and the “specificity of PTPσ inhibition” value (PTPσ) was “highly specific inhibitor”.
In the case of `CC(C)(O)CNc1ncc(-c2ccnc(Nc3ccnc(Cl)c3)n2)c(CC2CC2)n1` [VPS34-IN1], the “rescue by PTPσ knockdown, PR50 neurons” value ([1]; VPS34 inhibitor, PTPσ knockdown PR50 neurons) is reported as “abolished” and the “rescue effect of PTPσ knockdown on GR50 neuron survival” value ([2]; VPS34-IN1 0.5 μM, 2 days, PTPσ knockdown GR50 i^3Neurons) is reported as “completely diminished”.
For `Nc1ccc(C(=O)Nc2cccc(-c3nc(N4CCOCC4)c4oc5ncccc5c4n3)c2)cn1` [YM-201636], the “rescue effect in poly-GR expressing neurons (survival)” value ([2]; YM-201636 0.5 μM, GR50 i^3Neurons) is given as “robust rescue effect” and the “PI3P levels via inhibition of PI3P to PI(3,5)P2 conversion” value (PIKFYVE) is given as “can boost PI3P levels”.
For `N[C@@H](CCC(=O)O)C(=O)O` [glutamate], the “PI^+ dead cells in control shRNA C9-iPSNs” value (C9-iPSNs) was “increased”.
